Results on four molecules are retold here after patent US6794412B1, “Treatment of thrombosis by combined use of a factor Xa inhibitor and aspirin” (Bristol-Myers Squibb Pharma Company, priority 1999, dated 2004).

In the experiment the test system is rabbit model of arterial thrombosis. The experiment is described as follows: Electrically induced carotid artery thrombosis in rabbits, carotid blood flow over 90 min. Format: in vivo. As for the experimental part: Rabbits were anesthetized with ketamine (50 mg/kg i.m.) and xylazine (10 mg/kg i.m.) and then surgically prepared with arterial and venous catheters. An electromagnetic flow probe was placed on a segment of an isolated carotid artery to monitor blood flow. Thrombus formation was induced by electrical stimulation of the carotid artery for 3 min at 4 mA using an external stainless-steel bipolar electrode. Carotid blood flow was measured continuously over a 90-min period to monitor thrombus occlusion. Test agents were infused intravenously 1 hour prior to the electrical stimulation of the carotid artery and continuously during the 90-min period.

Where [1] appears, read: Factor Xa inhibitor alone 0.1 mg/kg/hr i.v. infusion.

As to `CS(=O)(=O)c1ccccc1-c1ccc(NC(=O)c2cc(C(F)(F)F)nn2-c2cccc(CN)c2)c(F)c1.O=C(O)C(F)(F)F` [Compound (1)], the “prevention of occlusion of the carotid artery” value (shortened to “prevention”) under setting [1] is recorded as “did not prevent the occlusion of the artery”.
On to `CS(=O)(=O)O.Cc1noc(C)c1S(=O)(=O)N[C@@H](CNC(=O)C[C@H]1CC(c2ccc(C(=N)N)cc2)=NO1)C(=O)O` [Compound (4)], for which, where the note is “Compound (4) alone 0.03 mg/kg/hr i.v.”, the “prevention” value was “did not prevent the occlusion of the artery”.
As to `NCc1cccc(-n2nc(C(F)(F)F)cc2C(=O)Nc2ccc(-c3ccccc3S(N)(=O)=O)cc2)c1.O=C(O)C(F)(F)F` [Compound (3)], the “prevention” value under setting [1] is listed as “did not prevent the occlusion of the artery”.
Regarding `CC(=O)Oc1ccccc1C(=O)O` [Aspirin], the “prevention” value (aspirin alone 1 mg/kg/hr i.v. infusion from 1 hour before stimulation and during 90 min) was “did not prevent the occlusion of the artery”.
